Data as given in ChEMBL document CHEMBL5042535, “Structure-Based Design and Synthesis of N-Substituted 3-Amino-β-Carboline Derivatives as Potent αβ-Tubulin Degradation Agents” (J Med Chem, 2022).

Experiments:
Type in all cases: functional, cell-based
[1] = tested on: MCF7; test: Antiproliferative activity against human MCF7 cells assessed as reduction in cell viability measured after 24 hrs by MTT assay; settings: MCF7, 24 h
[2] = tested on: NCI-H460; test: Antiproliferative activity against human NCI-H460 cells assessed as reduction in cell viability measured after 24 hrs by MTT assay; settings: NCI-H460, 24 h
[3] = tested on: Raji; test: Antiproliferative activity against human Raji cells assessed as reduction in cell viability measured after 24 hrs by MTT assay
[4] = tested on: A2780S; test: Antiproliferative activity against human A2780S cells assessed as reduction in cell viability measured after 24 hrs by MTT assay
[5] = tested on: HeLa; test: Antiproliferative activity against human HeLa cells assessed as reduction in cell viability measured after 24 hrs by MTT assay

Row | Compound | IC50 [1] [nM] | IC50 [2] [nM] | IC50 [3] [nM] | IC50 [4] [nM] | IC50 [5] [nM]
1 | CC(=O)Nc1cccc(Oc2cccc(CNc3cc4c(cn3)[nH]c3ccccc34)c2)c1 | 76 | 74 | 45 | 58 | 83
2 | c1cc(CNc2cc3c(cn2)[nH]c2ccccc23)cc(OCC2CC2)c1 | > 500 | > 500 | > 500 | > 500 | > 500
3 | CCCOc1cccc(CNc2cc3c(cn2)[nH]c2ccccc23)c1 | > 500 | > 500 | > 500 | > 500 | > 500
